Read-outs that look alike come from different tables or passages of the source.
Legend:
hippocampal slice = assay: Epileptic hippocampal slice, 0% Mg+2-induced epilepsy; format: cell-based, Sprague-Dawley albino rat; conditions: Rattus norvegicus, 30 μM Compound No. 6, 0% Mg+2
From the text: Hippocampal slices (450 μ) were obtained from male Sprague-Dawley albino rats (100-325 g). The method of slice preparation has been detailed elsewhere [A. H. Ganong et al., Brain Res., 273, 170-174 (1983)]. Slices were stored in a humidified interface chamber at room temperature and bathed in artificial cerebrospinal fluid (ACSF) which contained (in mM): NaCl 124.0, KCl 5.0, KH2 PO4 1.0, NaHCOP3 26.4, CaCl2, 2.0, MgSO4 1.5 and D-glucose 10.0, and was equilibrated with 95% 02:5% CO2. When needed for study, slices were placed one at a time in a small submersion chamber maintained at 35° C. where they were continuously perfused at 1.0-2.0 ml/min. Fresh solutions reached the recording chamber within 20 seconds and the perfusate was completely changed over within a minute. Additional oxygen and stirring was provided by an air jet (95% O2 :5% CO2) directed at the surface of the ACSF. Standard electrophysiological techniques were employed. Extracellular recording electrodes were glass micropipettes filled with 2.0 M NaCl and broken back to 2.0 m.OMEGA. resistance. All recording was from the somatic region of CA1. […] Intracellular recording electrodes of 60-100 MQ resistance were filled with 2.5 M KAc. […] The Schaffer collateral/commissural fibers were stimulated with tungsten bipolar stimulating electrodes at a rate of 0.03 Hz. The resulting field EPSP (S/C-CA1 EPSP) and the DC potential were amplified by an Axoprobe 1 amplifier and were continuously monitored on a Tektronix 5111A storage oscilloscope and a Gould 2300 chart recorder with a Gould Waveform storage module. Epileptiform activity was induced by omission of Mg++ ions from the perfusate, which removes the Mg++ mediated voltage-dependent block of the NMDA. receptor [B. Ault et al., J. Physiol., 307, 413-428 (1980)], or by the addition of the GABA antagonist picrotoxin. Drugs were added to the perfusate and zero magnesium refers to solutions which contain no added magnesium. The amplitude of the stimulus evoked primary population spike was used to assess the effects of experimental manipulations on the efficacy of synaptic function.

[1] = molecular target: T1, NMDA receptor (rat brain receptor expressed in Xenopus oocytes) (Rattus norvegicus, UniProt P35439); assay: Xenopus oocytes injected with rat cortex mRNA, blocking of glycine effects (voltage clamp); format: cell-based; conditions: 100 μM NMDA
T1 construct: PolyA+ RNA (mRNA) was extracted from adult male rat cortex; expressed in transfected cells; host or cells: Xenopus laevis oocytes microinjected with rat cortex poly(A)+ RNA
Procedure: PolyA+ RNA (mRNA) was extracted from adult male rat cortex using the refined guanidinium thiocyanate method developed by Han et al [J. H. Han et al., Biochemistry, 26, 1617-1625 (1987)] and the oligo (dT) cellulose chromatography procedure of Adiv and Leder [H. Aviv et al., Proc. Nat. Acad. Sci., 69, 1408-1412 (1972)]. Aliquots of mRNA (1.0 mg/ml water) were stored at -20° C.
Gravid adult female Xenopus laevis (Xenopus One, Ann Arbor, Mich. or NASCO, Ft. Atkinson, Wis.) were anaesthetized with 0.2% (w/v) Tricaine (3-amino benzoic acid ethyl ester; Sigma) and subjected to partial ovarectomy. Excised oocytes were then prepared and microinjected [N. W. Kleckner et al, Science 241 835-837 (1988)]. Oocytes were treated for one hour in Barth's solution (88.0 mM NaCl, 1.0 mM KCl, 2.4 mM NaHCO3, 0.41 mM CaCl2, 0.82 mM MgSO4, 10.0 μg/ml penicillin, 100.0 μg/ml streptomycin, 10.0 mM HEPES, pH 7.5) containing 1.5 mg/ml Neutral Protease (Beohringer Mannheim Biochemicals, Grade II). Oocytes were then placed in Barth's solution containing 100.0 mM sucrose and manually defolliculated with fine forceps. Defolliculated oocytes were then microinjected with approximately 50 ng of mRNA in Barth's solution at 16°-18° C.
Oocytes were assayed 2-8 days later for rat brain receptor expression via single electrode voltage. clamp (Axoclamp 2A, Axon Instruments) in a manner similar to that previously described [Kleckner et al, Id.]. […] Drugs were added to the perfusate and inward currents induced by agonist compounds were measured at peak steady state response. […] Antagonist compounds were perfused for a minimum of 3.0 minutes prior to subsequent agonist co-application. Data are expressed as percent maximal response (mean±S.E.M.). Half-maximal responses (EC50 's) and slopes for dose response data were determined from the least squares fit to the logistic regression equation.

Cerebellar cGMP = assay: Assay for effect on cGMP (cerebellum, intracisternal injection); format: in vivo, Swiss Hausche mice; conditions: ± SEM
Procedure: Male Swiss Hausche mice (25-30 g) were injected intracisternally (i.c.t.) with glycine agonists 10 minutes prior to sacrifice by focussed microwave irradiation. Compounds of the invention were injected intracisternally 2 minutes prior to the agonist. For intracisternal injections, al agonists were dissolved in HCl and diluted with isotonic saline prior to adjustment of the pH to between 6 and 7 with NaOH. The compounds of the invention were dissolved in isotonic saline and all compounds were administered in a volume of 5 μl.
Hydrochloric acid in extracts of the cerebellum were freeze-dried for assay of cGMP with a commercial RIA kit (NEN). Protein determinations (Lowery) and statistics (Dunett's t-test) were performed as described previously [P. L. Wcod et al., Neurochem., 19, 975-982 (1980)]. Groups consisted of 7-10 mice.

IC50 ([1]; IC50, 0.1 μM Gly, 0.1 μM glycine): 0.77 ± 0.12 µM
IC50 ([1]; IC50, 1.0 μM Gly, 1.0 μM glycine): 3.2 ± 1.1 µM
IC50 ([1]; IC50, 10 μM Gly, 10 μM glycine): 6.1 ± 3.2 µM
SMILES: O=C(O)Cc1c(C(=O)O)[nH]c2cc(Cl)ccc12 [Compound No. 6, 2-carboxy-6-chloro-3-indoleacetic acid]
activity at 30 µM (hippocampal slice; read-out: Burst duration): 60%
activity at 30 µM (hippocampal slice; read-out: Primary population spike amplitude): 97%
activity at 30 µM (hippocampal slice; read-out: Spontaneous activity): 48%
activity at 30 µM (hippocampal slice; read-out: Sum of additional population spike amplitude): 70.1%
Cerebellar cGMP (Cerebellar cGMP; Compound No. 6 (5 μg) alone): 3.5 ± 0.55 pmol/mg protein
Cerebellar cGMP (Cerebellar cGMP; D-Serine (100 μg) + Compound No. 6 (5 μg)): 5.8 ± 0.96 pmol/mg protein
